Assay results reported in paper PMC5987058, “Therapeutic Potential of a Scorpion Venom-Derived Antimicrobial Peptide and Its Homologs Against Antibiotic-Resistant Gram-Positive Bacteria” (Frontiers in Microbiology, 2018).
Ends that are not written are not given here.

Columns and labels:
[1] = test system: S. aureus AB94004; assay: Competition assay with LPS or LTA (MIC); type: cell-based, Staphylococcus aureus; settings: 30 min, n = 3; for MIC, peptide treated with LPS 1: 1 mg/mL peptide + equal volume 5 mg/mL LPS from E. coli; for MIC, peptide treated with LTA: 1 mg/mL peptide + equal volume 5 mg/mL LTA from S. aureus; for MIC, peptide treated with LPS 1+LTA: peptide incubated with LPS 1 and LTA
Description: 1 mg/mL of peptides were incubated with an equal volume of 5 mg/mL of the lipopolysaccharide (LPS, Sigma-Aldrich: L3012/L8643) or lipoteichoic acid (LTA, Sigma-Aldrich: L2515) for 30 min. The MICs of peptides treated with LPS or LTA against S. aureus AB94004 were subsequently measured.

[2] = test system: PRSA P1389; assay: MIC, broth microdilution; type: cell-based, Staphylococcus aureus; settings: penicillin-resistant clinical isolate, LB medium, 10^5–10^6 CFU/mL, 16–18 h at 37°C, triplicate
Description: (§1) The antimicrobial activity was determined via a broth microdilution assay according to the procedure recommended by the Clinical and Laboratory Standards Institute with some modifications ([Hou et al., 2011]; [Li et al., 2016]). Bacteria were cultured in Luria-Bertani (LB) broth to OD600 = 0.6 at 37°C, then diluted to 10^5–10^6 CFU/mL in LB medium. Peptides were serially double diluted to a gradient concentration range from 48.3 to 1.5 μM in physiological saline. Eighty microliters of the bacterial suspension and 20 μL of diluted peptide at varying concentrations were added to 96-well plates, and then incubated for 16–18 h at 37°C with continuous shaking at 250 rpm. The antimicrobial activity of ampicillin and kanamycin were also tested as positive controls. Experiments were performed in triplicate. The minimum inhibitory concentration (MIC) was determined as the lowest peptide concentration at which no bacterial growth was observed.

[3] = test system: MRSA P1374; assay: MIC, broth microdilution; type: cell-based, Staphylococcus aureus; settings: methicillin-resistant clinical isolate, LB medium, 10^5–10^6 CFU/mL, 16–18 h at 37°C, triplicate
Description: as §1

[4] = test system: MRSA P1381; assay: MIC, broth microdilution; type: cell-based, Staphylococcus aureus; settings: methicillin-resistant clinical isolate, LB medium, 10^5–10^6 CFU/mL, 16–18 h at 37°C, triplicate
Description: as §1

[5] = test system: Staphylococcus aureus ATCC6538; assay: MIC, broth microdilution; type: cell-based; settings: LB medium, 10^5–10^6 CFU/mL, 16–18 h at 37°C, triplicate
Description: as §1

[6] = test system: Staphylococcus aureus AB208193; assay: MIC, broth microdilution; type: cell-based; settings: LB medium, 10^5–10^6 CFU/mL, 16–18 h at 37°C, triplicate
Description: as §1

[7] = test system: Bacillus thuringiensis AB92037; assay: MIC, broth microdilution; type: cell-based; settings: LB medium, 10^5–10^6 CFU/mL, 16–18 h at 37°C, triplicate
Description: as §1

[8] = test system: Escherichia coli ATCC25922; assay: MIC, broth microdilution; type: cell-based; settings: LB medium, 10^5–10^6 CFU/mL, 16–18 h at 37°C, triplicate
Description: as §1

[9] = test system: Staphylococcus epidermidis AB208187; assay: MIC, broth microdilution; type: cell-based; settings: LB medium, 10^5–10^6 CFU/mL, 16–18 h at 37°C, triplicate
Description: as §1

[10] = test system: Staphylococcus epidermidis AB208188; assay: MIC, broth microdilution; type: cell-based; settings: LB medium, 10^5–10^6 CFU/mL, 16–18 h at 37°C, triplicate
Description: as §1

[11] = test system: Micrococcus luteus AB93113; assay: MIC, broth microdilution; type: cell-based; settings: LB medium, 10^5–10^6 CFU/mL, 16–18 h at 37°C, triplicate
Description: as §1

[12] = test system: Staphylococcus aureus ATCC25923; assay: MIC, broth microdilution; type: cell-based; settings: LB medium, 10^5–10^6 CFU/mL, 16–18 h at 37°C, triplicate
Description: as §1

[13] = test system: Escherichia coli AB94012; assay: MIC, broth microdilution; type: cell-based; settings: LB medium, 10^5–10^6 CFU/mL, 16–18 h at 37°C, triplicate
Description: as §1

[14] = test system: Pseudomonas aeruginosa ATCC9027; assay: MIC, broth microdilution; type: cell-based; settings: LB medium, 10^5–10^6 CFU/mL, 16–18 h at 37°C, triplicate
Description: as §1

[15] = test system: Bacillus subtilis AB91021; assay: MIC, broth microdilution; type: cell-based; settings: LB medium, 10^5–10^6 CFU/mL, 16–18 h at 37°C, triplicate
Description: as §1

[16] = test system: S. aureus AB94004; assay: SYTOX green fluorescence measurement (membrane integrity); type: cell-based, Staphylococcus aureus; settings: positive control; 5 μM SYTOX green; n = 3
Description: S. aureus AB94004 were cultured to exponential phase (ca. 10^7 CFU/mL), centrifuged and suspended in physiological saline. Then the fluorescence dye SYTOX green (Invitrogen) was added at a final concentration of 5 μM. After incubation for 10 min, 50 μL bacterial culture and equal volume of peptides serially diluted in physiological saline at final concentrations of 1 × MIC, 2 × MIC, and 4 × MIC were added in a Greiner 96-well flat-bottom black plate. Physiological saline and MSI 78 were used as negative and positive controls. Fluorescence was measured over 30 min at the excitation and emission wavelengths of 488 and 525 nm, respectively.

[17] = test system: Staphylococcus aureus AB94004; assay: MIC, broth microdilution; type: cell-based; settings: legend of Figure 6
Description: as §1

Row | Substance | MIC, peptide treated with LPS 1 [1] [µM] | MIC, peptide treated with LTA [1] [µM] | MIC, peptide treated with LPS 1+LTA [1] [µM] | MIC [2] [µM] | MIC [3] [µM] | MIC [4] [µM] | MIC [5] [µM] | MIC [6] [µM] | MIC [7] [µM] | MIC [8] [µM] | MIC [9] [µM] | MIC [10] [µM] | MIC [11] [µM] | MIC [12] [µM] | MIC [13] [µM] | MIC [14] [µM] | MIC [15] [µM] | MIC, peptide treated with LPS 2 ([1]; 1 mg/mL peptide + equal volume 5 mg/mL LPS from P. aeruginosa) [µM] | SYTOX green fluorescence [16] | MIC of control substances [17] [µM]
1 | FFGALFKLATKIIPSLFR-NH2 [Megicin-18] | 3 | 3 | 3 | 1.5 | 3.0 | 3.0 | 1.5 | 3.0 | 1.5 | 12.1 | 1.5 | 1.5 | >48.3 | 3.0 | >48.3 | 12.1 | 3.0 |  |  | 
2 | FFGHLFKLATKIIPSLFQ-NH2 [Meucin-18] |  |  |  | 3.0 | 3.0 | 1.5 | 1.5 | 3.0 | 3.0 | 11.9 | 3.0 | 1.5 | 47.5 | 3.0 | 23.7 | 11.9 | 3.0 |  |  | 
3 | FFGHLFKLATKIIPSLFR-NH2 [Marcin-18] | 2.9 | 2.9 | 2.9 | 2.9 | 2.9 | 1.5 | 1.5 | 2.9 | 2.9 | 5.9 | 2.9 | 2.9 | 23.4 | 2.9 | 11.7 | 5.9 | 2.9 | 2.9 |  | 
4 | GIGKFLKKAKKFGKAFVKILKK-NH2 (C-terminus assumed) [MSI 78] |  |  |  |  |  |  |  |  |  |  |  |  |  |  |  |  |  |  | stable increase | 2.5
